For this assay, the system named is thalamic explants from E14.5 embryos of ABX-treated dams. Put plainly: Axon outgrowth assay with individual metabolite supplementation. Type of assay: cell-based, C57Bl/6J mice. To be noted: for Length of ABX thalamic axons proximal to hypothalamus / Number of ABX thalamic axons proximal to hypothalamus: ABX thalamic + ABX hypothalamic explant; for Length of ABX thalamic axons proximal to hypothalamus / Number of ABX thalamic axons proximal to hypothalamus / Length of axons proximal to striatal explant: 1 nM, 100 nM, 10 uM; for Length of axons proximal to striatal explant / Number of axons per 200 μm of thalamic perimeter proximal to striatal explant: ABX thalamic + ABX striatal explant, 48 hrs; for Number of axons per 200 μm of thalamic perimeter proximal to striatal explant: physiologically-relevant concentrations (1 nM, 100 nM, 10 uM). On the procedure:
Dams were sacrificed on E14.5 by cervical dislocation to preclude confounding effects of CO2 on maternal and fetal physiology. Thalamic, striatal, and hypothalamic explants were isolated from E14.5 embryonic brains and transferred to ice-cold HBSS (Invitrogen). Explants were sliced to ˜500 μm and placed on a thin layer of 50 μl BD Matrigel (Beckton Dickinson) on a 15 mm coverslip. Each coverslip contained a thalamic explant at the center and a striatal and hypothalamic explant on each side, at 1 mm equidistant from the thalamic explant. Explants were incubated in warmed neurobasal complete media containing 1× neurobasal medium (Thermofisher Scientific), 1× GlutaMax (Thermofisher Scientific), and 2% B-27 (Thermofisher Scientific) for 48 hrs at 37° C., and fed with fresh media every 24 hrs. After 48 hrs, media was gently aspirated and replaced with 4% PFA for 1 hr and processed for immunofluorescence staining with 1:500 (3 tubulin III anti-mouse antibody (EMD Millipore MAB1637). Axons were imaged using a Leica DMi8 epifluorescence microscope and quantified using Fiji software^78. Axon numbers were quantified per 200 μm of thalamus at a distance of 200 μm from the thalamus. Length of axons was quantified by averaging length of the 10 longest axons proximal to striatum or hypothalamus. Data for number and length of axons in the explant co-culture system was normalized by subtraction of data from monoculture of thalamic explants from the corresponding experimental group.
Thalamic, striatal, and hypothalamic explants from ABX-treated dams were harvested and cultured as described in the “axon outgrowth assay” section above. For metabolite treatment, BD Matrigel was supplemented with […], 100 nM, or 1 nM of trimethylamine-N-oxide (TMAO), 5-aminovalerate (5-AV), imidazole propionate (IP), 3-indoxyl-sulfate (3-IS), or hippurate (llip)^48,79-81. 5-aminovalerate is a precursor to N,N,N-trimethyl-5-aminovalerate (TMAV), which is not commercially available, and both are implicated in carnitine metabolism^82,83. Metabolite concentrations were determined as physiologically relevant, based on reported concentrations detected in blood and/or cerebrum from the mouse multiple tissue metabolomic database (MMIvIDB), human metabolome database (HMDB) and existing literature^48,79-81. Axons were stained, imaged and analyzed as described in the “axon outgrowth assay” section above.

Structures can show the parent of a compound that is named as a salt.

For `O=S(=O)(O)Oc1c[nH]c2ccccc12` [3-IS, 3-indoxyl sulfate], the “Length of ABX thalamic axons proximal to hypothalamus” value (shortened to “Length of ABX thalamic axons proximal”) is given as “No statistically significant changes”; the “Number of ABX thalamic axons proximal to hypothalamus” value (“Number of ABX thalamic axons proximal” for short) was “No statistically significant changes”; the “Length of axons proximal to striatal explant” value (“Length of axons proximal” below) is on record as “modest, but not statistically significant, increases in axon length”; the “Number of axons per 200 μm of thalamic perimeter proximal to striatal explant” value (from here on “Number of axons per 200 μm … to striatal explant”) was “but not 3-IS, significantly increased axon number”.

As for `NCCCCC(=O)O` [5-AV, 5-aminovalerate], the “Length of ABX thalamic axons proximal” value was “No statistically significant changes”, the “Number of ABX thalamic axons proximal” value is given as “No statistically significant changes”, the “Length of axons proximal” value is given as “significantly increased axon length” and the “Number of axons per 200 μm … to striatal explant” value is recorded as “significantly increased axon number to levels seen in fetal brain explants from embryos of SPF dams”.

As to `O=C(O)CNC(=O)c1ccccc1` [HIP, hippurate], the “Length of ABX thalamic axons proximal” value was “No statistically significant changes”, the “Number of ABX thalamic axons proximal” value is “No statistically significant changes”, the “Length of axons proximal” value is reported as “no effect” and the “Number of axons per 200 μm … to striatal explant” value is reported as “significantly increased axon number to levels seen in fetal brain explants from embryos of SPF dams”.

For `O=C(O)CCc1cnc[nH]1` [IP, imidazole propionate], the “Length of ABX thalamic axons proximal” value is “No statistically significant changes”, the “Number of ABX thalamic axons proximal” value is given as “No statistically significant changes”, the “Length of axons proximal” value is on record as “significantly increased axon length” and the “Number of axons per 200 μm … to striatal explant” value is recorded as “significantly increased axon number to levels seen in fetal brain explants from embryos of SPF dams”.

Take `C[N+](C)(C)[O-]` [TMAO, trimethylamine-N-oxide]: the “Length of ABX thalamic axons proximal” value is “No statistically significant changes”; the “Number of ABX thalamic axons proximal” value was “No statistically significant changes”; the “Length of axons proximal” value is “modest, but not statistically significant, increases in axon length”; the “Number of axons per 200 μm … to striatal explant” value was “significantly increased axon number to levels seen in fetal brain explants from embryos of SPF dams”.

The record behind these values is patent publication US12491217B2, “Compositions and methods for promoting healthy neural development in an unborn baby” (The Regents of the University of California, priority 2019, dated 2025).
